22 molecules from ChEMBL document CHEMBL1155844, “Pyrazole inhibitors of coactivator associated arginine methyltransferase 1 (CARM1)” (Bioorg Med Chem Lett, 2008) can be followed below.

Test [1] deals with T1, Histone-arginine methyltransferase CARM1 (Homo sapiens, UniProt Q86X55).
T1 sequence (Q86X55 whole entry): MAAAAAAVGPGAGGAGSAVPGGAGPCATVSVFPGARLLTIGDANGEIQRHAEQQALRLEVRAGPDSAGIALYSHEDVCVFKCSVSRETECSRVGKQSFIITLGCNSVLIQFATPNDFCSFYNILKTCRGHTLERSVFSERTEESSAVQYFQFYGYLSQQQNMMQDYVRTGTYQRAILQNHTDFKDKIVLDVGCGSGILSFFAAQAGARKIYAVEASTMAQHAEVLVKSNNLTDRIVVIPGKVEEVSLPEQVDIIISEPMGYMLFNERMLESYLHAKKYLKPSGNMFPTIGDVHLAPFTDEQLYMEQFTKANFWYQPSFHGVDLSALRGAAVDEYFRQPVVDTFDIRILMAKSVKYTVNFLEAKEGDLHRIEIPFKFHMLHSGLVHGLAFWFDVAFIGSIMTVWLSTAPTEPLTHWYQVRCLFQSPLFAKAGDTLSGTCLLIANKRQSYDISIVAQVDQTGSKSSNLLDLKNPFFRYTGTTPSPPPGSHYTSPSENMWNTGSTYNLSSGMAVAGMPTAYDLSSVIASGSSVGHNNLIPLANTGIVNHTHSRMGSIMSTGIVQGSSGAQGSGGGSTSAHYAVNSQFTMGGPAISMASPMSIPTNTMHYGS
In words: Inhibition of human GST-tagged CARM1 by methylation assay.

The target of test [2] is Protein arginine N-methyltransferase 1 (Homo sapiens, UniProt Q99873). In words: Inhibition of GST-tagged PRMT1 by methylation assay.
Test [3] deals with Protein arginine N-methyltransferase 3 (Homo sapiens, UniProt O60678). Put plainly: Inhibition of GST-tagged PRMT3 by methylation assay.

For orientation: IC50 means the midpoint of a concentration-inhibition curve.

Sequence of Protein arginine N-methyltransferase 1 (Q99873 whole entry): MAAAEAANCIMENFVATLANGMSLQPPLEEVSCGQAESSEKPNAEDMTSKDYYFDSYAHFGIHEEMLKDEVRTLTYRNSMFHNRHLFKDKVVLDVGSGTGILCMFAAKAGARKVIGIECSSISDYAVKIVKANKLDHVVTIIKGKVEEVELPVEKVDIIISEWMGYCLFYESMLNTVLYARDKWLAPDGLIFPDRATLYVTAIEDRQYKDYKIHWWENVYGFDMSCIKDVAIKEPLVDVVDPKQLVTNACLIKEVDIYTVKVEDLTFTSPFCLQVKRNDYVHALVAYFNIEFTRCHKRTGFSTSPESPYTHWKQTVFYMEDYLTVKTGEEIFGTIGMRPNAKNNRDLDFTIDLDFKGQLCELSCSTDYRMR
Sequence of Protein arginine N-methyltransferase 3 (O60678 whole entry): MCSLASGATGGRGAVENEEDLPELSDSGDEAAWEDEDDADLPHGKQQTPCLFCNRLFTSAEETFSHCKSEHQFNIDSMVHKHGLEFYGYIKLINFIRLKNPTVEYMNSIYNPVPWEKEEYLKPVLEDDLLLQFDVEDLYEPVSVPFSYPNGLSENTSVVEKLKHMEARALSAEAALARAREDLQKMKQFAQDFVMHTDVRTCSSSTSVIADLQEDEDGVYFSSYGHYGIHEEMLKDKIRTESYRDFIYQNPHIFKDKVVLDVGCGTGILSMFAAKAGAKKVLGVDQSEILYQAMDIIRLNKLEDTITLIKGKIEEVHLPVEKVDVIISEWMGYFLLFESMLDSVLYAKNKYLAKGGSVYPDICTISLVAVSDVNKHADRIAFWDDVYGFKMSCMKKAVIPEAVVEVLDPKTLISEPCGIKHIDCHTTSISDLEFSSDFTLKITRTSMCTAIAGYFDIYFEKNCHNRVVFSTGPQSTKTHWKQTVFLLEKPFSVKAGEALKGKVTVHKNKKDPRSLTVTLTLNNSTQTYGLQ

`CNCC(=O)NCc1cccc(-n2nc(C(F)(F)F)cc2C(=O)Nc2ccc(-c3ccccc3S(C)(=O)=O)cc2F)c1` displayed an IC50 in test [1] greater than 30 µM.
The same measure, in the same setting: then `C[C@H](N)C(=O)NCc1cccc(-n2nc(C(F)(F)F)cc2C(=O)Nc2ccc(-c3ccccc3S(C)(=O)=O)cc2F)c1`, with 0.16 µM.
Same read-out and setting: then `C[C@H](N)C(=O)NCc1cccc(-n2nc(C(F)(F)F)cc2C(=O)Nc2ccccc2)c1`, with 1.32 µM; and `CS(=O)(=O)c1cccc(NC(=O)c2cc(C(F)(F)F)nn2-c2cccc(CNC(=O)CN)c2)c1`, with 0.23 µM; and `CS(=O)(=O)c1ccccc1-c1ccc(NC(=O)c2cc(C(F)(F)F)nn2-c2cccc(CNC(=O)CCN)c2)c(F)c1`, with 16.9 µM.
For the molecule `C[C@H](N)C(=O)NCc1cccc(-n2nc(C(F)(F)F)cc2C(=O)N(C)Cc2ccccc2)c1`, in test [1], the IC50 is 3.4 µM.
`CS(=O)(=O)c1ccccc1-c1ccc(NC(=O)c2cc(C(F)(F)F)nn2-c2cccc(CNC(=O)CN)c2)cc1` gave an IC50 in test [1] of 1.8 µM.
Consider `C[C@H](N)C(=O)NCc1cccc(-n2nc(C(F)(F)F)cc2C(=O)NC2CCCCC2)c1`, for which, in test [1], 4.3 µM corresponded to half-maximal inhibition (IC50).
On the same count and under the same terms, then `C[C@H](N)C(=O)NCc1cccc(-n2nc(C(F)(F)F)cc2C(=O)N[C@@H](C)c2ccccc2)c1`, with 7.1 µM; and `CNC(=O)c1cc(C(F)(F)F)nn1-c1cccc(CNC(=O)CN)c1`, with 10.6 µM.
In test [1], `CC(C)(N)C(=O)NCc1cccc(-n2nc(C(F)(F)F)cc2C(=O)Nc2ccc(-c3ccccc3S(C)(=O)=O)cc2F)c1` showed an IC50 greater than 30 µM.
On the same count and under the same terms, then `CN(C)C(=O)c1cc(C(F)(F)F)nn1-c1cccc(CNC(=O)CN)c1`, with 29.8 µM.
Same read-out and setting: then `CS(=O)(=O)c1ccccc1-c1ccc(NC(=O)c2cc(C(F)(F)F)nn2-c2cccc(CNC(=O)C(N)C(F)(F)F)c2)c(F)c1` (centres undefined), with greater than 30 µM.
Same read-out and setting: then `C[C@@H](N)C(=O)NCc1cccc(-n2nc(C(F)(F)F)cc2C(=O)Nc2ccc(-c3ccccc3S(C)(=O)=O)cc2F)c1`, with 20.1 µM; and `NCC(=O)NCc1cccc(-n2nc(C(F)(F)F)cc2C(=O)Nc2ccccc2)c1`, with 7.7 µM.
`C[C@H](N)C(=O)NCc1ccccc1-n1nc(C(F)(F)F)cc1C(=O)NCc1ccccc1` yielded an IC50 in test [1] greater than 50 µM.
Same read-out and setting: with `C[C@H](N)C(=O)NCc1cccc(-n2nc(C(F)(F)F)cc2C(=O)N[C@H](C)c2ccccc2)c1` the figure was 0.18 µM; with `NCC(=O)NCc1cccc(-n2nc(C(F)(F)F)cc2C(=O)Nc2ccc(-c3ccccc3)cc2)c1`, 1.42 µM; with `C[C@H](N)C(=O)NCc1cccc(-n2nc(C(F)(F)F)cc2NC(=O)OCc2ccccc2)c1`, 0.6 µM.
Consider `C[C@H](N)C(=O)NCc1cccc(-n2nc(C(F)(F)F)cc2C(=O)NCc2ccccc2)c1`, for which the IC50 in test [1] was 0.08 µM; in test [2], greater than 25 µM; in test [3], greater than 25 µM.
Molecule `C[C@H](N)C(=O)NCc1ccc(-n2nc(C(F)(F)F)cc2C(=O)NCc2ccccc2)cc1` returned an IC50 in test [1] greater than 50 µM.
In the case of `C[C@H](N)C(=O)NCc1cccc(-n2nc(C(F)(F)F)cc2C(=O)NCCc2ccccc2)c1`, the half-inhibitory concentration (IC50) in test [1] was 1.1 µM.
